System: Anaesthetized Guinea-pig
Test: Filling cystometry in the anaesthetized guinea-pig (effects on lower urinary tract function)
Type: in vivo
Conditions: for % Change in Micturition Pressure / % Change in Threshold Volume: infused continuously for 60 min, vs baseline
Protocol: Animals: Female Hartley guinea pigs (body weight 300-350 grams).
Surgical procedure: The animals are anaesthetized with urethane (1.5 g/kg intraperitoneally) given as a divided dose of 80% initially and 20% 15 min later. Body temperature is maintained at 37±2° C. throughout the experiment. The bladder is exposed through a lower abdominal incision and a polyethylene catheter with a small cuff is inserted in the bladder dome and secured with a purse-string suture. The ureters are then ligatured. The bladder is replaced under the abdominal wall and the catheter is connected via a T-tube to a pressure transducer in order to measure intravesical pressure. The trachea is cannulated. The jugular vein is cannulated to allow administration of test compounds and the femoral artery is cannulated in order to collect plasma sample.
Cystometry: A series of filling cystometry cycles are performed throughout the experimental measurement period to establish baseline parameters and determine drug effect. Before each cystometry cycle, the bladder is emptied manually. Saline at room temperature is then infused continuously into the bladder via the catheter at a flow rate of 600 μL/min until a micturition occurs. The following micturition parameters are measured during each cystometry cycle: Micturition Pressure (MP, the pressure in the bladder during voiding) and Threshold Volume (ThV, volume at which micturition occurs, mL).
Evaluation of drug effect: After the determination of baseline parameters (mean of 3 micturition cycles), test substance or vehicle is administered continuously for 60 minutes. At the end of the drug infusion period, the effect of drug on cystometry parameters is determined by taking an average of the measurements made in two micturition cycles. For combination studies, the respective doses of the test compounds are infused together over a 60 min period following the measurement of baseline parameters.

SMILES | % Change in Micturition Pressure (Oxybutynin 3.18 mg/kg) | % Change in Threshold Volume (Oxybutynin 3.18 mg/kg) | effect on micturition pressure (in words) (oxybutynin 3.18 mg/kg) | effect on micturition pressure (in words) (Compound A 0.11 mg/kg, 0.32 mg/kg) | % Change in Micturition Pressure (Compound A 0.11 mg/kg) [%] | % Change in Threshold Volume (Compound A 0.11 mg/kg) [%] | % Change in Micturition Pressure (Compound A 0.32 mg/kg) [%] | % Change in Threshold Volume (Compound A 0.32 mg/kg)
CCN(CC)CC#CCOC(=O)C(O)(c1ccccc1)C1CCCCC1 (centres unmarked) [Oxybutynin, oxybutynin, reference compound] | +3.2% | +18.9% | small increase | – | – | – | – | –
CCCOc1ccc(S(=O)(=O)N2CCN(CC)CC2)cc1-c1nc2c(CC)nn(Cc3ccccn3)c2c(=O)[nH]1 [Compound A, 3-ethyl-5-[5-(4-ethylpiperazin-1-ylsulphonyl)-2-n-propoxyphenyl]-1-(pyridin-2-yl)methyl-1,6-dihydro-7H-pyrazolo[4,3-d]pyrimidin-7-one] | – | – | – | small reduction | −6.7 | −2.7 | −6 | +11.4%

Reference: patent publication US20080318982A1, “Pharmaceutical Combination for the Treatment of Luts” (Pfizer, Inc., priority 2005, published 2008)
